Here are results for one compound from patent publication US8937065B2, “Compositions and methods for modulating a kinase” (Clevexel Pharma, priority 2011, dated 2015).

Bounds are passed on as bounds.

For data set [1], the system named is B cell receptor NFAT-bla RA1. In words: B cell receptor NFAT-bla RA1 inhibition (goat anti-human IgM stimulated, Ramos cells). As to conditions: read-out: IC50 B cells mechanism-based: Ramos cells IgM stimulated NFAT activity. On the procedure: The inhibition of B cell receptor NFAT-bla RA 1 (activated by goat anti-human IgM, which stimulates the SYK signaling pathway) by several compounds was determined using the Screening Protocol and Assay Conditions (Invitrogen, Madison, Wis.). The assays were performed according to manufacturer's protocols. See Example 4, Cell-line Specific Protocols B cell receptor activity in Ramos cells for details.
(§1) Mechanism-based inhibition assays using compound 7A (Table 1) were performed using GeneBLAzer® Technology (Invitrogen Corporation), according to manufacturer specifications. […] In this state, excitation of the coumarin results in fluorescence resonance energy transfer to the fluorescein moiety and emission of green light. […] Excitation of the coumarin in the presence of Beta-lactamase activity results in a blue fluorescence signal. […]
(§2) An activator assay screen was run to obtain the EC80 concentration of the known activator to add in step 3. • 1. […] 4 μL of the EC80 concentration of activator, as determined in an Activator assay, was added to all wells containing compound and known inhibitor to bring the final assay volume to 40 μL. • 4. […] The assay plate was read on a fluorescence plate reader (Tecan Safire) and the data is analyzed. […]
NFAT-bla RA1 cells were thawed. […] The plate was read on a fluorescence plate reader.

Data set [2] has as its target hERG (Homo sapiens, UniProt Q12809). In words: hERG IC50.
Data set [3] relates to RL cells. The data set is described as follows: Proliferation of RL cells (Cell Titer-Glo). As to conditions: Homo sapiens, B cells, outcome-based, read-out: IC50 Proliferation RL cells (Non-Hodjkin lymphoma). A general note: In ATP-based viability assays light output follows the ATP content of the culture.
In data set [4] the test system is Ramos cells. In words: Proliferation of Ramos cells (Cell Titer-Glo). Conditions: Homo sapiens, B cells, outcome-based, read-out: IC50 Proliferation Ramos cells (Burkitt's lymphoma).
Data set [5] can be described thus: hLM T½ (stability). The class given is in vitro ADME. As to conditions: human, liver microsomes. (In general: Microsomes from liver hold many membrane-bound enzymes, among them those of drug oxidation.)
Data set [6] has as its system Caco-2. The data set is described as follows: Caco-2 permeability and efflux. The class given is in vitro ADME. (Caco-2 cells form a polarised layer with tight junctions and transporters.)
The nature of data set [7]: Mouse PK (PO). As to conditions: in vivo.
Data set [8] relates to Interleukin 4/STAT6-STAT6-bla RA1. In words: Interleukin 4/STAT6-STAT6-bla RA1 inhibition (IL-4-stimulated STAT6 activity in Ramos cells). In kind it is cell-based. As to conditions: Homo sapiens; Ramos cells, IL4 stimulated; read-out: IC50 B cells mechanism-based: Ramos cells IL4 stimulated STAT6 activity. How it is done:
The inhibition of Interleukin 4/STAT6-STAT6-bla RA1 (activated by IL-4) by several compounds was determined using the Screening Protocol and Assay Conditions (Invitrogen, Madison, Wis.). The assays were performed according to manufacturer's protocols. Example 4, Cell-line Specific Protocols IL-4-stimulated STAT6 activity in Ramos cells for details.
as §1, §2
STAT6-bla RA1 cells were thawed. […] The plate was read on a fluorescence plate reader.

hERG, sequence (Q12809 whole entry): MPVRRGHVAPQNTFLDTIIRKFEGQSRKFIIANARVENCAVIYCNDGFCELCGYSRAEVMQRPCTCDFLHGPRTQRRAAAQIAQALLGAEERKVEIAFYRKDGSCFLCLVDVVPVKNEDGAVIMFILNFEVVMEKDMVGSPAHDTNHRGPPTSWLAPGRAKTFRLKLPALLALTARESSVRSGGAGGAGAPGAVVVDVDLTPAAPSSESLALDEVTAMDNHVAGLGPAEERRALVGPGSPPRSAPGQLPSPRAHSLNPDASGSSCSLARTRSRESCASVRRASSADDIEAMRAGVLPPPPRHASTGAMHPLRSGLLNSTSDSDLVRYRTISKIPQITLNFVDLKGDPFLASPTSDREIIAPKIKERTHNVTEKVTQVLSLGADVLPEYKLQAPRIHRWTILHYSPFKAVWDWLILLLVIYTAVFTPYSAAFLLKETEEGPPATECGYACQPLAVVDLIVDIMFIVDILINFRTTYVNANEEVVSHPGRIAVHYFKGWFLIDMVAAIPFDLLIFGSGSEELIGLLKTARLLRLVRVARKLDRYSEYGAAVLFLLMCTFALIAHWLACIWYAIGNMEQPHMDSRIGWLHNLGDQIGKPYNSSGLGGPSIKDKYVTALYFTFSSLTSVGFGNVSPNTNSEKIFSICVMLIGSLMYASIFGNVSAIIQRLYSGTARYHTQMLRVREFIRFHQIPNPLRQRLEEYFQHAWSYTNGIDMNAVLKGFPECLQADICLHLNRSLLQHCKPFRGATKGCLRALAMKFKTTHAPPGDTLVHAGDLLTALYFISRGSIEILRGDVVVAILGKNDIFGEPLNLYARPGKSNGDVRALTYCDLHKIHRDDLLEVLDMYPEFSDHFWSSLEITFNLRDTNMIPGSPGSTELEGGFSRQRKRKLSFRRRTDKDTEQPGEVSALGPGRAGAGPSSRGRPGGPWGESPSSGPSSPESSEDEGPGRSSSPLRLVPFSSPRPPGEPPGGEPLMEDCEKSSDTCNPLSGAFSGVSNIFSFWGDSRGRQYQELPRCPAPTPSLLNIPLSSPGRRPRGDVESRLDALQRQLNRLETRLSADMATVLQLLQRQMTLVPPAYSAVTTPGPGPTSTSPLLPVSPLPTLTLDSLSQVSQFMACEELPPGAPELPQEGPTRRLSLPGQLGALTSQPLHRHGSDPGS

On to `O=C(CN1CCOCC1)Nc1cccc(-c2nc(-c3c[nH]c(C(=O)N4CCCC4)c3)cs2)c1` [7A, 2-morpholino-N-(3-(4-(5-(pyrrolidine-1-carbonyl)-1H-pyrrol-3-yl)thiazol-2-yl)phenyl)acetamide], for which the IC50 was 124 nM in data set [1]; greater than 10 µM in data set [2]; 26 µM in data set [3]; 534 nM in data set [4]; 32 nM in data set [8]. The half-life is 36 min in data set [5] and 192 min in data set [7] (read-out: Mouse PK (PO) T½ (converted)). For the same compound, the “Caco-2 Eflux” value in data set [6] (Caco-2) is given as “no”. The “Caco-2 Papp A-B (×10^6/cm · s^−1)” value in data set [6] (Caco-2, A-B) was 24 ×10^6/cm · s^−1. Moreover, the bioavailability in data set [7] (read-out: Mouse PK (PO) % F) worked out at 88%.
